Values after ≈ are worked out from the molar mass of the structure shown. Values joined by “and” are separate entries in the source; they are usually repeats but may differ in a detail not shown here. Equal entries are not always repeated.
Tests used:
Streptococcus gordonii [1] = assay: In-vitro activity in combination with Coe-Comfort tissue conditioner; type: cell-based
S. mutans = assay: as above; type: cell-based, Streptococcus mutans
[2] = system: Lactobacillus acidophilus; assay: In-vitro activity in combination with Coe-Comfort tissue conditioner, CFU count; type: cell-based; conditions: for concentration giving total growth inhibition: in combination with Coe-comfort tissue conditioner; for No. colony-forming units (CFU): mixed with Coe-Comfort
Streptococcus gordonii [3] = assay: Antimicrobial activity, well diffusion method; type: cell-based; conditions: 5mg/ml of sample around well (6 mm), mean ± Standard deviation
Description: (§1) Mouth microbial representatives including unicellular fungi; Candida albicans (RCMB 05382), Candida glabrata (RCMBA 05386), Candida parapsilosis (RCMBA 06002), Candida tropicalis (RCMB 05384), Gram-positive bacteria; Lactobacillus acidophilus (RCMBA 4267), Streptococcus gordonii (RCMBA 2004), Streptococcus mutans (RCMBA 4131), and Gram-negative bacteria; Pseudomonas aeruginosa (RCMBA 1002) were obtained from the Regional Center for Mycology and Biotechnology (RCMB), Al-Azhar University, Cairo, Egypt, as test organisms. Antimicrobial activity was determined by the well diffusion method. Petri plates contained 20 ml of Nutrient (for bacteria) or Malt extract (for fungi). Agar medium were seeded with 1-3 day cultures of microbial inoculums (1-2 X 10^7 CFU/ml). […] The assessment of antimicrobial activity was based on measurement of the diameter of the inhibition zone formed around the well.

Pseudomonas aeruginosa [4] = assay: Antimicrobial activity, well diffusion method; type: cell-based; conditions: 5mg/ml of sample around well (6 mm), mean ± Standard deviation
Description: as §1

Streptococcus mutans [5] = assay: Antimicrobial activity, well diffusion method; type: cell-based; conditions: 5mg/ml of sample around well (6 mm), mean ± Standard deviation
Description: as §1

[6] = system: Lactobacillus acidophilus; assay: Antimicrobial activity, well diffusion method; type: cell-based; conditions: 5mg/ml of sample around well (6 mm), mean ± Standard deviation
Description: as §1

Streptococcus gordonii [7] = assay: MIC determination, micro-dilution method; type: cell-based; conditions: read-out: Minimum Inhibitory Concentration
Description: (§2) Mouth microbial representatives including unicellular fungi; Candida albicans (RCMB 05382), Candida glabrata (RCMBA 05386), Candida parapsilosis (RCMBA 06002), Candida tropicalis (RCMB 05384), Gram-positive bacteria; Lactobacillus acidophilus (RCMBA 4267), Streptococcus gordonii (RCMBA 2004), Streptococcus mutans (RCMBA 4131), and Gram-negative bacteria; Pseudomonas aeruginosa (RCMBA 1002) were obtained from the Regional Center for Mycology and Biotechnology (RCMB), Al-Azhar University, Cairo, Egypt, as test organisms.
(§3) The minimum inhibitory concentration (MIC) was determined by micro-dilution method using serially diluted (2 folds) extract and isolated compound. MIC of the extract was determined by dilution of extract and isolated compound of concentrations of 0.0-1000 µg/ml. Equal volume of each extract and nutrient broth were mixed in a test tube. Specifically 0.1 ml of standardized inoculum (1-2 X 10^7 CFU/ml) was added in each tube. The tubes were incubated at 37°C for 24-48 h. Two control tubes containing the growth medium, saline and the inoculum were maintained for each test batch. The lowest concentration (highest dilution) of the extract that produced no visible microbial growth (no turbidity) when compared with the control tubes were regarded as MIC.

Pseudomonas aeruginosa [8] = assay: MIC determination, micro-dilution method; type: cell-based; conditions: read-out: Minimum Inhibitory Concentration
Description: as §2, §3

Streptococcus mutans [9] = assay: MIC determination, micro-dilution method; type: cell-based; conditions: read-out: Minimum Inhibitory Concentration
Description: as §2, §3

[10] = system: Lactobacillus acidophilus; assay: MIC determination, micro-dilution method; type: cell-based; conditions: for MIC: read-out: Minimum Inhibitory Concentration
Description: as §2, §3

[11] = Sub-chronic toxicity, liver and kidney function; type: in vivo, Male Wister rats; conditions: rats; oral daily for 15 days; extract 500 mg/kg, isolated compound 50 mg/kg; serum 6 hr after the last dose
Procedure: Male Wister rats (150-180 g) were divided into 3 equal groups each of 10 rats. Rats of the 1st group received the vehicle in a dose of 5 mL/kg and left as normal control. Rats of the 2nd and 3rd groups were administered the ethanolic extract of the investigated fungi (500 mg/kg) and the isolated compound (50 mg/kg). All medications were administered orally daily for 15 consecutive days. Animals were maintained under identical conditions with food and water ad libitum for the entire period with close observation. At the end of the experimental period, blood samples were collected from the orbital plexus of rats, 6 hr after the last dose. Samples were left to clot at room temperature for 20 min. The obtained sera were collected and used to determine the activity of AST and ALT. Levels of urea and creatinine were also estimated.

Candida albicans [12] = assay: In-vitro activity in combination with Coe-Comfort tissue conditioner, CFU count; type: cell-based; conditions: for No. colony-forming units (CPU): Candida albicans, mixed with Coe-Comfort
Procedure: The Coe-Comfort tissue conditioner was mixed according to the proportions indicated by the manufacturers. In detail, Coe-comfort™ tissue conditioner is formed by dispensing 5 ml of Coe-comfort liquid into a disposable mixing cup. The red measure level is filled with about 6 g of Coe-comfort powder and is then slowly added to the liquid. The obtained mixture is blended for 30 seconds and setted aside for approximately one minute until it flows sluggishly from a spatula. Using less liquid gives a thicker, faster setting mix and vice versa. […] The extract and isolated compound/conditioner mixture was homogenized in a sterile glass beaker for 30 seconds. Immediately afterwards, the conditioning powder was added and mixed for 40 seconds and then poured onto a Petri plate. Once the mixture solidified, the surface was covered with 4 ml of Sabouraud agar, and after 30 minutes, inoculated with 20 µl of an appropriate dilution of Candida. The plates were incubated at 37°C for 24 hours and then the CFUs were counted. The experiment was performed in triplicate. For the conditioner Coe-Comfort, the control was unmodified conditioner.

Candida tropicalis [13] = assay: Antimicrobial activity, well diffusion method; type: cell-based; conditions: 5mg/ml of sample around well (6 mm), mean ± Standard deviation
Description: as §1

Candida glabrata [14] = assay: Antimicrobial activity, well diffusion method; type: cell-based; conditions: 5mg/ml of sample around well (6 mm), mean ± Standard deviation
Description: as §1

Candida albicans [15] = assay: Antimicrobial activity, well diffusion method; type: cell-based; conditions: 5mg/ml of sample around well (6 mm), mean ± Standard deviation
Description: as §1

Candida parapsilosis [16] = assay: Antimicrobial activity, well diffusion method; type: cell-based; conditions: 5mg/ml of sample around well (6 mm), mean ± Standard deviation
Description: as §1

Candida tropicalis [17] = assay: MIC determination, micro-dilution method; type: cell-based
Description: as §2, §3

Candida glabrata [18] = assay: MIC determination, micro-dilution method; type: cell-based; conditions: Candida glabrata
Description: as §2, §3

Candida albicans [19] = assay: MIC determination, micro-dilution method; type: cell-based; conditions: read-out: Minimum Inhibitory Concentration
Description: as §2, §3

Candida parapsilosis [20] = assay: MIC determination, micro-dilution method; type: cell-based; conditions: Lodderomyces parapsilosis, read-out: Minimum Inhibitory Concentration
Description: as §2, §3

For [H]/N=C(\N/C(=N/[H])NCCCCCCNC(=N)NC(=N)Nc1ccc(Cl)cc1)Nc1ccc(Cl)cc1 [Chlorhexidine, reference compound], the “concentration giving total growth inhibition” value (Streptococcus gordonii [1]) was 3.9 µg/mL, the “concentration giving total growth inhibition” value (S. mutans) was 15.63 µg/mL and the “concentration giving total growth inhibition” value [2] was 15.63 µg/mL. The “No. colony-forming units (CFU)” value ([2]; concentration 000.24 µg/ml) was 6.4 x 10^5, the “No. colony-forming units (CFU)” value ([2]; concentration 000.49 µg/ml) was 2.3 x 10^5 and the “No. colony-forming units (CFU)” value ([2]; concentration 000.98 µg/ml) was 3.1 x 10^4. The “No. colony-forming units (CFU)” value ([2]; concentration 001.95 µg/ml) was 5.4 x 10^3, the “No. colony-forming units (CFU)” value ([2]; concentration 003.90 µg/ml) was 1.9 x 10^3 and the “No. colony-forming units (CFU)” value ([2]; concentration 007.81 µg/ml) was 7.9 x 10^2. For the same compound, the “No. colony-forming units (CFU)” value ([2]; concentration 015.63 µg/ml) was 00.00, the “No. colony-forming units (CFU)” value ([2]; concentration 031.25 µg/ml) was 00.00 and the “No. colony-forming units (CFU)” value ([2]; concentration 062.50 µg/ml) was 00.00. The “Diameter of inhibition zone” value (Streptococcus gordonii [3]) was 22.1± 0.51 mm, the “Diameter of inhibition zone” value (Pseudomonas aeruginosa [4]) was 20.1 ± 0.19 mm and the “Diameter of inhibition zone” value (Streptococcus mutans [5]) was 23.5 ± 0.34 mm. The “Diameter of inhibition zone” value [6] was 26.2± 0.42 mm, the MIC (Streptococcus gordonii [7]) was 0.98 µg/mL (≈ 1.94 µM) and the MIC (Pseudomonas aeruginosa [8]) was 3.9 µg/mL (≈ 7.72 µM). For the same compound, the MIC (Streptococcus mutans [9]) was 0.49 µg/mL (≈ 0.969 µM) and the MIC [10] was 0.06 µg/mL (≈ 0.119 µM).

For C/C=C(/C)C1CCC2C(C1)CC(C)C1C2C=C(C)C2C3CC(C=C(C)C)CC3C(O)CC21 (stereo not shown) [Isolated compound, 9-((Z)-but-2-en-2-yl)-2,3,3a,4,5,5a;5b,6,7,7a,8,9,10,11,11a,11b,13a,13b-octadecahydro-6,13-dimethyl-2-(2-methylprop-1-enyl)-1H-cyclopenta[a]chrysen-4-ol], the “concentration giving total growth inhibition” value (Streptococcus gordonii [1]) was 62.50 µg/mL and 62.5 µg/mL, the “concentration giving total growth inhibition” value (S. mutans) was 125 µg/mL and the “concentration giving total growth inhibition” value [2] was 7.81 µg/mL. For the same compound, the “No. colony-forming units (CFU)” value ([2]; concentration 000.24 µg/ml) was 8.2 x 10^5, the “No. colony-forming units (CFU)” value ([2]; concentration 000.49 µg/ml) was 9.7 x 10^4 and the “No. colony-forming units (CFU)” value ([2]; concentration 000.98 µg/ml) was 4.8 x 10^4. For the same compound, the “No. colony-forming units (CFU)” value ([2]; concentration 001.95 µg/ml) was 3.4 x 10^3, the “No. colony-forming units (CFU)” value ([2]; concentration 003.90 µg/ml) was 4.1 x10^2 and the “No. colony-forming units (CFU)” value ([2]; concentration 007.81 µg/ml) was 00.00. The “No. colony-forming units (CFU)” value ([2]; concentration 015.63 µg/ml) was 00.00, the “No. colony-forming units (CFU)” value ([2]; concentration 031.25 µg/ml) was 00.00 and the “No. colony-forming units (CFU)” value ([2]; concentration 062.50 µg/ml) was 00.00. The “effect on the activity of alanine aminotransferase (ALT)” value [11] was “did not show any significant effect”, the “effect on the activity of aspirate aminotransferase (AST)” value [11] was “did not show any significant effect” and the “effect on the levels of blood urea” value [11] was “did not show any significant effect”. For the same compound, the “effect on the levels of serum creatinine” value [11] was “did not show any significant effect”, the “concentration giving total growth inhibition” value (Candida albicans [12]; C. albicans, in combination with Coe-comfort tissue conditioner) was 7.81 µg/mL and the “No. colony-forming units (CPU)” value (Candida albicans [12]; concentration 000.24 µg/ml) was 9.1 x 10^4. The “No. colony-forming units (CPU)” value (Candida albicans [12]; concentration 000.49 µg/ml) was 5.2 x 10^4, the “No. colony-forming units (CPU)” value (Candida albicans [12]; concentration 000.98 µg/ml) was 6.3 x 10^3 and the “No. colony-forming units (CPU)” value (Candida albicans [12]; concentration 001.95 µg/ml) was 1.0 x 10^3. The “No. colony-forming units (CPU)” value (Candida albicans [12]; concentration 003.90 µg/ml) was 2.3 x 10^2, the “No. colony-forming units (CPU)” value (Candida albicans [12]; concentration 007.81 µg/ml) was 00.00 and the “No. colony-forming units (CPU)” value (Candida albicans [12]; concentration 015.63 µg/ml) was 00.00. The “No. colony-forming units (CPU)” value (Candida albicans [12]; concentration 031.25 µg/ml) was 00.00, the “No. colony-forming units (CPU)” value (Candida albicans [12]; concentration 062.50 µg/ml) was 00.00 and the “Diameter of inhibition zone” value (Candida tropicalis [13]) was 22.4 ± 0.58 mm. The “Diameter of inhibition zone” value (Streptococcus gordonii [3]) was 20.3 ± 0.72 mm, the “Diameter of inhibition zone” value (Pseudomonas aeruginosa [4]) was 18.2± 0.63 mm and the “Diameter of inhibition zone” value (Candida glabrata [14]) was 00.0 mm. The “Diameter of inhibition zone” value (Candida albicans [15]) was 19.3 ± 0.63 mm, the “Diameter of inhibition zone” value (Streptococcus mutans [5]) was 22.1± 0.72 mm and the “Diameter of inhibition zone” value (Candida parapsilosis [16]) was 21.3 ± 0.58 mm. The “Diameter of inhibition zone” value [6] was 23.9 ± 0.37 mm, the “Minimum Inhibitory Concentration” value (Candida tropicalis [17]) was 000.49 µg/mL and the MIC (Candida tropicalis [17]; read-out: Minimum Inhibitory Concentration) was 0.49 µg/mL (≈ 1.12 µM). For the same compound, the MIC (Streptococcus gordonii [7]) was 3.9 µg/mL (≈ 8.93 µM), the MIC (Pseudomonas aeruginosa [8]) was 15.6 µg/mL (≈ 35.8 µM) and the “Minimum Inhibitory Concentration” value (Candida glabrata [18]) was 000.00 µg/mL. For the same compound, the MIC (Candida albicans [19]) was 7.81 µg/mL (≈ 17.9 µM), the MIC (Streptococcus mutans [9]) was 0.98 µg/mL (≈ 2.24 µM) and the MIC (Candida parapsilosis [20]) was 1.95 µg/mL (≈ 4.47 µM). The “Minimum Inhibitory Concentration” value [10] was 000.24 µg/mL and the MIC [10] was 0.24 µg/mL (≈ 0.55 µM).
